Test results from patent publication US11504414B2, “Bacterial inhibitors” (priority 2016, dated 2022).
Where no end group is shown, it is not given here.

B1: C-terminal domain: C-terminal domain of S. cristatus arginine deiminase, 208 amino acid portion (protein, listed as Streptococcus cristatus)
chain: VYNREEDTRIEGGDELVLSKDVLAVGISQRTDAASIEKLLVNIFKKNVGFKKVLAFEFANNRKFMHLDTVFTMVDYDKFTIHPEIEGDLRVYSVTYENEKLKIVEEKGDLAELLAQNLGVEKVHLIRCGGGNIVAAGREQWNDGSNTLTIAPGVVVVYDRNTVTNKILEEYGLRLIKIRGSELVRGRGGPRCMSMPFEREEV

Experiments:
P. gingivalis 33277 [1] = format: cell-based, Porphyromonas gingivalis; conditions: for inhibitory activity on virulence gene expression: lower efficiency than peptide4; for Relative expression level fmA / Relative expression level kgp / Relative expression level mfa1 / Relative expression level pgn0128 / Relative expression level rgpA / Relative expression level rgpA/B: peptide 16 μM in TSB; for Relative expression level fmA: mRNA by real-time PCR relative to absence of peptides = 1 unit, mean of three experiments; for Relative expression level kgp / Relative expression level mfa1 / Relative expression level pgn0128 / Relative expression level rgpA / Relative expression level rgpA/B: mRNA relative to absence of peptides = 1 unit
Procedure: The half inhibitory concentration (IC50) was measured by conducting three independent experiments to determine mRNA levels of fimA, mfa1, rgpA/B, and kgp in the presence of peptide4 at the concentrations 0, 4, 16, and 64 μM, respectively. The IC50 for each gene was established using a Microsoft Excel program with add-in for curve fitting. Asterisks indicate the statistical significances of IC50 of peptide4 for a specific gene when compared to that for the fimA gene (P<0.05; t test).
RNA isolation and qPCR. P. gingivalis were homogenized in Trizol Reagent (Invitrogen, Carlsbad, Calif.) and RNA was purified using an RNeasy mini spin column (Qiagen, Valencia, Calif.). RNA samples were digested on-column with RNase-free DNase, and total RNA was tested using an Agilent 2100 Bioanalyzer to ensure the quality of the samples. Amplification reactions consisted of a reverse transcription using a Bio-Rad iScript Reverse Transcription Supermix on a TC-3000 thermal cycler (Techne, Staffordshire, ST15 OSA, UK) and a real-time qRT-PCR analysis using a QuantiTect SYBR Green RT-PCR Kit (Qiagen) on an iCycler MyiQ™ Real-Time PCR detection system (Bio-Rad Laboratories, Inc, Hercules, Calif.) according to the manufacturer's instructions. P. gingivalis 16 S rRNA gene was used as a normalizing gene. The melting curve profile was analyzed to verify a single peak for each sample, which indicated primer specificity. The expression levels of the investigated genes for the test sample were determined relative to the untreated calibrator sample by using the comparative cycle threshold (ΔCT) method. ΔCT was calculated by subtracting the average CT value of the test sample from the average CT value of the calibrator sample, and the value used to calculate the ratio between the two by assuming 100% amplification efficiency.
Peptide synthesis and activity. Peptides were synthesized by PEPperPRINT and Biomatik (Delaware) and purified with High Performance Liquid Chromatography (HPLC) at 90% purity. Peptides were resuspended in nuclease/proteinase-free PBS, aliquoted, and stored at −20° C. Inhibitory activity of peptides were determined as described (Hajishengallis, G., Darveau, R. P. & Curtis, M. A. The keystone-pathogen hypothesis. Nature reviews. Microbiology 10, 717-725, doi:10.1038/nrmicro2873 (2012)) with slight modification. Peptides were mixed with 5×10^5 cells of P. gingivalis, spotted onto a TSB blood agar plate, and cultured for 60 h anaerobically. The expression levels of fimbrial and gingipain mRNA or proteins were measured using qRT-PCR or western blot analyses.
P. gingivalis 33277 was grown TSB in the presence or absence of peptide at a concentration 16 μM. Transcript levels were measured by real-time PCR. The mRNA levels of genes are indicated relative to the expression level in the absence of peptides as 1 unit. Results shown are means and standard deviations from three independent experiments. Asterisks indicate the statistical significance of expression levels at least two fold in P. gingivalis grown in TSB with/without peptides (P<0.05; t test).

[2] = tested on: surface extracts of P. gingivalis 33277; assay: ArcA peptide microarray binding of surface extracts; design: species or system Porphyromonas gingivalis; conditions: portions of ArcA
Procedure: The five highest peaks are numbered.
Protein Interaction Screening. Surface extracts of P. gingivalis were collected by sonication (1 min for three times) and centrifugation (13000 g for 30 min) followed by filtration (0.2 μm pore size). Peptide microarray analysis was performed by PEPperPRINT (Heidelberg, Germany). An ArcA microarray was generated with 409 different peptides of ArcA, and each peptide contained 15 amino acids with a peptide-peptide overlap of 14 amino acids. After blocking and washing, the array was incubated with surface extracts (100 μg/ml) isolated from P. gingivalis 33277, the 0806 mutant, or the ragB mutant. P. gingivalis surface proteins bound on the ArcA array were detected using anti-P. gingivalis antibodies and sheep anti-rabbit IgG (H+L) DyLight680. The arrays were analyzed with a LI-COR Odyssey Imaging System.

HOKs [3] = assay: LDH cytotoxicity assay; format: cell-based, human; conditions: P4 as high as 200 μM, 48 h
Procedure: (§1) To examine the cytotoxic effects of P4, plasma membrane damage of HOKs was determined by the Pierce LDH Cytotoxicity Assay Kit. HOKs were seeded into a 6-well plate at a density of 1×10^5/well and cultured in Oral Keratinocyte Medium supplemented with antibiotics (100 U/mL penicillin and 100 μg/mL streptomycin) and 10% fetal calf serum at 37° C. in a humidified chamber with 5% CO2 for 24 h. The cells were then incubated with the growth medium supplemented with P4 (50 or 200 μM) for 48 h. The growth medium was collected for an LDH cytotoxicity assay according to the manufacturer's instructions (Thermo Scientific). To measure the effect of P4 on HOK apoptosis, HOKs were harvested and stained with Annexin V-FITC Apoptosis Kit (Invitrogen), which is able to stain both apoptotic cells and dead cells. Flow cytometric analysis was performed to quantitate apoptotic cells and dead cells (annexin V+/PI+).

HOKs [4] = assay: Annexin V-FITC apoptosis assay (flow cytometry); format: cell-based, human; conditions: P4 as high as 200 μM, 48 h
Procedure: as §1

[5] = P4 stability in H2O and PBS (LC-MS/MS); format: physicochemical
Procedure: Non-proteinogenic amino acids may improve peptide stability.
(§2) To determine P4 stability in solution, P4 was incubated in H2O, PBS, and whole saliva at 37° C. for 24 h. P4 in each sample was compared using LC-MS/MS analysis. Briefly, 2 μM P4 was injected on C18 nano-clumn and run with 5-20% of 0.1% FA in acetonitrile for 30 min. MS spectra were acquired in a positive mode on Orbitrap LTQ XL (Thermo).

[6] = P4 stability in whole saliva (LC-MS/MS); format: in vitro ADME
Procedure: as §2

[7] = buffer (PBS) and TBS (growth medium of P. gingivalis)
[8] = P4 stability in whole saliva (LC-MS/MS); format: in vitro ADME; remark: listed apart in the source
P. gingivalis 33277 [9] = assay: Immunofluorescence/confocal assay of ArcA binding to bacteria; design: species or system Porphyromonas gingivalis; conditions: purified ArcA 50 μg, 10^8 cells
Procedure: The upper panel presents differential interference contrast (DIC) images showing the location of the bacteria. The red images in the lower panel are the TRITC fluorescence labeling images representing S. cristatus ArcA bound to P. gingivalis 33277 or A. actinomycetemcomitans Y4 that are positively labeled by ArcA specific antibody.
Confocal microscopy. ArcA (50 μg) was purified from S. cristatus CC5A as described (Teles R, Teles F, Frias-Lopez J, Paster B, Haffajee A. 2013. Lessons learned and unlearned in periodontal microbiology. Periodontal 2000 62: 95-162), mixed with P. gingivalis cells (10^8) in PBS and incubated at room temperature for 1 h. After washing three times with PBS, bacteria-protein complexes were blocked in PBS with 5% BSA for 1 h. ArcA bound to P. gingivalis was detected by staining with rabbit anti-ArcA polyclonal antibody (1:400) and tetramethyl rhodamine isothiocyanate (TRITC, 1:500)-conjugated AffiniPure Goat Anti-Rabbit IgG antibody. Visualization was with a LSM 510 inverted confocal microscope with selected filters (543 nm excitation and 560 nm emission).

[10] = tested on: P. gingivalis RagB (PGN_0294) and MotA/ToIQ/ExbB proton channel family protein (PGN_0806); assay: Pull-down assay of ArcA-interacting surface proteins; format: binding, Porphyromonas gingivalis; conditions: MS identification
Procedure: Pull-down assays. To isolate and identify P. gingivalis surface molecule(s) that interacts with ArcA, we performed a pull-down assay. Surface extracts of P. gingivalis were prepared by sonication with a Sonic Dismembrator (Fisher Scientific; output control 8, 20 s×3), and the cell debris were removed by centrifugation followed by filtration (0.2-μm pore size). Surface extracts of 33277 were mixed with purified ArcA on a rotator at room temperature for 1 h, and then added to an ArcA antibody coupled Sepharose 4B column (Sigma-Aldrich). After incubation at room temperature for 1 h, the column was washed three times with PBS containing 0.01% Tween, and proteins were eluted by 0.1 M Glycine pH 2.4. After SDS-PAGE, bands were excised and identified by liquid chromatography-mass spectrometry.

P. gingivalis = assay: Effect of ArcA domains on fimA expression; format: cell-based, Porphyromonas gingivalis; conditions: domain of ArcA as a whole
[11] = Arginine deiminase activity of ArcA domain; format: biochemical

Molecule	inhibitory activity on virulence gene expression (P. gingivalis 33277 [1])	Relative expression level fmA (P. gingivalis 33277 [1])	Relative expression level kgp (P. gingivalis 33277 [1])	Relative expression level mfa1 (P. gingivalis 33277 [1])	Relative expression level pgn0128 (P. gingivalis 33277 [1])	Relative expression level rgpA (P. gingivalis 33277 [1])	Relative expression level rgpA/B (P. gingivalis 33277 [1])	binding to P. gingivalis surface proteins [2]	also measured
ELVRGRGGPRCMSMPF (listed as Streptococcus cristatus) [P5, ArcA-derived peptide from residue 389, C-terminal domain]	some inhibitory activity	0.97	0.96	0.83	0.91	0.73	0.72	demonstrated to bind	–
IRGRETKK (listed as Streptococcus cristatus) [P1, ArcA-derived peptide from residue 97, N-terminal domain]	some inhibitory activity	0.88	1.06	0.85	0.96	0.86	0.89	demonstrated to bind	–
NHMFADTRNRE (listed as Streptococcus cristatus) [P2, ArcA-derived peptide from residue 177, N-terminal domain]	some inhibitory activity	0.80	0.90	0.80	0.88	0.81	0.78	demonstrated to bind	–
NIFKKNVGFKK [P4, NIFKKNVGFKK]	–	–	–	–	–	–	–	–	cell membrane damage of HOKs (LDH) (HOKs [3]): did not induce; apoptosis of HOKs (annexin V/PI) (HOKs [4]): did not induce; stability at 37° C. ([5]; 37° C. for 24 h, initial study): stable; stability in H2O and PBS ([5]; 24 h incubation, 37° C.): not affected; time P4 can maintain in saliva at certain level ([6]; 37° C.): at least 24 h; signal in diluted whole saliva ([6]; PBS:saliva 1:1, 0, 0.5, 1, 2, 4 and 24 h): gradual reduction; Signal Intensity of 331.45 m/z peak ([6]; Saliva (PBS:saliva 1:1), 0 hour): 3.9 × 10^6 ± 3.1 × 10^5; Signal Intensity of 331.45 m/z peak ([6]; Saliva, 0.5 hour, 37° C.): 3.6 × 10^6 ± 4.0 × 10^5; Signal Intensity of 331.45 m/z peak ([6]; Saliva, 1 hour, 37° C.): 2.4 × 10^6 ± 2.2 × 10^5; Signal Intensity of 331.45 m/z peak ([6]; Saliva, 2 hour, 37° C.): 1.7 × 10^6 ± 4.2 × 10^5; Signal Intensity of 331.45 m/z peak ([6]; Saliva, 4 hour, 37° C.): 8.8 × 10^5 ± 2.7 × 10^4; Signal Intensity of 331.45 m/z peak ([6]; Saliva, 24 hour, 37° C.): 4.2 × 10^5 ± 3.9 × 10^4; solubility [7]: can be dissolved; Signal Intensity of 331.45 m/z peak ([8]; Saliva, 48 hour, 37° C.): 6.0 × 10^3 ± 4.1 × 10^2; signal in diluted whole saliva ([8]; after 48 h): completely diP4eared
VYNREEDTRIEGGDEL (listed as Streptococcus cristatus) [P3, ArcA-derived peptide from residue 208, C-terminal domain]	some inhibitory activity	0.87	0.99	0.82	0.91	0.84	0.98	demonstrated to bind	–
arginine deiminase [ArcA]	–	–	–	–	–	–	–	–	affinity of ArcA for bacterial cells (P. gingivalis 33277 [9]): high affinity; interaction with P. gingivalis surface proteins PGN_0294 and PGN_0806 [10]: found to interact
B1	–	–	–	–	–	–	–	–	effect on fimA expression of P. gingivalis (P. gingivalis): observed to affect; deiminase activity [11]: does not have any deiminase activity
